What was measured:
CRL-5822 cells [1] = assay: Effects of CpG, MKR.4 and anti-MHC class II antibody on CRL-5822 cell viability counts (Example 2); format: cell-based, human; settings: CpG 1 ug/mL at start, MKR.4 2.5 ug/mL 24 h later for 2 h, Anti MHC Class II 5 ug/mL, viability counts 24 h after antibody
Experimental: CRL-5822 were Prepared as Follows: • Removed the media from a flask of CRL-5822 using a sterile glass pipet and vacuum • Added 1.5 mL of accutase to the flask and placed in incubator for 20 minutes • Washed with 3 mL of PBS • Transferred all to a sterile 15 mL conical tube • Centrifuged for 5′@1000 rpm • Removed supernatant with sterile glass pipet and vacuum • Resuspended in 3 mL of PBS • Performed a hemacytometer count indicating: 1.14*10^6 cells total of CRL-5822 cells • 1.14*10^6/8 wells+2 wells for culture maintenance=10 wells • 1.14*10^6/10 wells=[…] cells per well • Centrifuged the 3 mL of cell suspension for 5′ at 1000 rpm • Resuspended pellet in 10 mL of 10% FBS RPMI • 1 mL of this was added to 2 wells in a 12-well plate added 1 mL of fresh 10% FBS RPMI to each well to bring the total volume up to 2 mL.
(§1) 8 wells were set up for the experiment for each cell type (CRL-5822 and C57BL/6) with no treatment, with CpG, MKR.4 peptide, with MKR.4 peptide+CpG and with or without addition of purified Anti Class-II (HLA-DR,DP,DQ) treatment in the amounts listed below.
CRL-5822 • CpG: • (x) (1 mg/mL stock)=(1 ug/mL) (2 mL) • x=2 ul • MKR.4: • (x) (5 mg/mL stock)=(2.5 ug/mL) (2 mL) • x=1 ul • Anti MHC Class II • Treat at 5 ug/mL • Stock is at 1 mg/mL • (x) (1 mg/mL)=(5 ug/mL) (2 mL) • x=10 ul/well
(§2) CpG was administered to activate the cells and induce CLIP expression. MKR.4 was added to select wells 24 hours after cell activation. The cells were incubated with MKR.4 for 2 hours. Then fresh media with or without Anti MHC Class II was added. 24 hours after Anti MHC Class II was added to the wells viability counts were performed.

C57BL/6 splenocytes = assay: Effects of CpG, MKR.4 and anti-MHC class II antibody on C57BL/6 splenocyte viability counts (Example 2); format: cell-based, mouse; settings: CpG 5 ug/mL at start, MKR.4 5 ug/mL 24 h later for 2 h, Anti MHC Class II 5 ug/mL, viability counts 24 h after antibody
Experimental: C57BL/6 were Prepared as Follows: • A spleen from a C57BL/6 mouse was placed in a cell strainer in a petri dish with 6 mL of PBS • The spleen was mashed to produce a cell suspension • The PBS splenocyte cell suspension was transferred into a labeled 15 mL conical tube and centrifuged for 5 minutes at 1000 rpm • The pellet was resuspended in 1 mL of PBS • Geys was prepared to lyse the red blood cells • 7 mL of DI H20 • 0.5 mL of Geys B • 0.5 mL of Geys C • weighed out […] of NH4Cl • Mixed the […] of NH4Cl with 2 mL of Geys A • Transferred the dissolved solution to a 15 mL conical tube with the H20, Geys B, and Geys C • 3 mL of the Geys solution was added to the 1 mL of PBS cell suspension, mixed well and placed on ice for 1 minute (frequently inverted solution in tube on ice during the 1 minute) • The mixture was centrifuged for 5 minutes at 1000 rpm, washed with 5 mL of PBS, centrifuged for 5 minutes at 1000 rpm and resuspended in 10 mL of PBS • A hemacytometer count was performed: 99.0*10^6 cells total (9.9*10^6 cells/mL) plate 4*10^6 cells per well*8 wells=32 million; 32*10^6/9.9*10^6=3.23 mL of this suspension needed to obtain 32*10^6 cells • Centrifuged 3.23 mL of the suspension for 5 minutes at 1000 rpm and resuspended the pellet in 8 mL of 5% FBS RPMI • 1 mL of suspension was added to each well (12-well plate) • Added another 2 mL of 5% FBS RPMI to each well to bring the final volume up to 3 mL
as §1
C57BL/6 • CpG: • (x) (1 mg/mL stock)=(5 ug/mL) (3 mL) • x=15 ul • MKR.4: • (x) (5 mg/mL stock)=(5 ug/mL) (3 mL) • x=3 ul • Anti MHC Class II • Treat at 5 ug/mL • Stock is at 1 mg/mL • (x) (1 mg/mL)=(5 ug/mL) (3 mL) • x=15 ul/well
as §2

CRL-5822 cells [2] = assay: Effects of LPS, MKR.4 and anti-MHC class II antibody on CRL-5822 cell viability counts (Example 1); format: cell-based, human; settings: LPS 1 ug/mL at start, MKR.4 2.5 ug/mL 24 h later for 2 h, Anti MHC Class II 5 ug/mL, viability counts 24 h after antibody
Experimental: Methods • The media was removed from a flask of CRL-5822 using a sterile glass pipet and vacuum and 1.5 mL of accutase was added to the flask and placed in incubator for 20 minutes • The cells were washed with 3 mL of PBS and transferred to a sterile 15 mL conical tube and centrifuged for 5 minutes @1000 rpm • The supernatant was removed with sterile glass pipet and vacuum and the pellet resuspended in 5 mL of PBS • A cell count was performed using the TC-10 automated counter • Loaded 10 ul of cell suspension+10 ul of trypan blue into disposable counting slide • Loaded slide into the TC-10 • Count • Live: 3.54*10^4 cells/mL*5 mL=177,000 cells total • 177,000/9 wells (8 wells in experiment+1 to maintain culture)=19,666 cells/well (flask). • The 5 mL of cell suspension was centrifuged for 5′ at 1000 rpm, the pellet was resuspended in 9 mL of 10% FBS RPMI • 1 mL of the cell suspension was added to a T-25 flask that had 4 mL of media in it and placed in the incubator. • After culture 1 mL of the cell suspension was added to each well (8 wells in a labeled 24 well plate) • A fresh vial of MKR.4 was resuspended in sterile DMSO • 7 mg of peptide was used to make a 5 mg/mL stock • 7 mg/mL=5 mg/mL=1.4 mL of DMSO • The peptide was added into 1.4 mL of DMSO, under the hood to maintain sterility • Once all of the peptide was dissolved, 200 ul aliquots were made […]

| Substance | Total Dead (CRL-5822 cells [1]) | Total Live (CRL-5822 cells [1]) | Total Dead (C57BL/6 splenocytes) | Total Live (C57BL/6 splenocytes) | Total Dead (CRL-5822 cells [2]) | Total Live (CRL-5822 cells [2]) |
| --- | --- | --- | --- | --- | --- | --- |
| 5′-tcgtcgttttgtcgttttgtcgtt-3′ [CpG, reference compound] | 0.07*10^6 | 0.35*10^6 | 0.08*10^6 | 1.25*10^6 |  |  |
| ANS GFR IMA VLA SGG QY (ANSGFRIMAVLASGGQY) [MKR.4] | 0.08*10^6 | 0.24*10^6 | 0.10*10^6 | 0.44*10^6 | 0.07*10^6 | 0.32*10^6 |

Reference: US8906846B2, “Method of treating inflammatory bowel disease by administering a clip-inducing agent” (The Texas A&M University System, priority 2011, dated 2014)
